Consider 16 compounds from ChEMBL document CHEMBL5724558, “Image-based profiling of drug vulnerabilities in CRC organoids” (2024).

Several values for one entry are separate records, joined by “and”; a condition that tells them apart may be missing. Equal values may be shown once.

Common to all, as to type: functional, Homo sapiens
Parameters in all cases: dose or concentration left out as unconfirmed

Assay [1] deals with Colon cancer organoid. Briefly: Image-based profiling of donated chemical probes and chemogenomic kinase set in O21 CRC organoid. Image analysis is performed on the sum area metric, and the data were normalized to the DMSO control. After imaging the organoid viability is measured using the OneGloEX Luciferase Assay System. The normalized viability data and sum area are reported.

In assay [2] the test system is Colon cancer organoid. Briefly: Image-based profiling of donated chemical probes and chemogenomic kinase set in O09 CRC organoid. Image analysis is performed on the sum area metric, and the data were normalized to the DMSO control. After imaging the organoid viability is measured using the OneGloEX Luciferase Assay System. The normalized viability data and sum area are reported.

Assay [3] has as its system Colon cancer organoid. Briefly: Image-based profiling of donated chemical probes and chemogenomic kinase set in O06 CRC organoid. Image analysis is performed on the sum area metric, and the data were normalized to the DMSO control. After imaging the organoid viability is measured using the OneGloEX Luciferase Assay System. The normalized viability data and sum area are reported.

On to `COc1ccc(CCc2nc3cc(-c4c(C)noc4C)ccc3n2C[C@H](C)N2CCOCC2)cc1Cl`, for which the “Cell Viability” value in the assay on Colon cancer organoid [1] (Replication number 1) is 102.391% and 140.496%; in the assay with Colon cancer organoid [1] (Replication number 2), 95.0347% and 135.859%; in the assay on Colon cancer organoid [2] (Replication number 1), 60.3888% and 74.4204%; in the assay with Colon cancer organoid [2] (Replication number 2), 92.6649% and 71.2702%; in the assay with Colon cancer organoid [3] (Replication number 1), 175.76% and 138.685%; in the assay on Colon cancer organoid [3] (Replication number 2), 131.173% and 129.766%.

As for `CC#CC(=O)N1CCC[C@H]1c1nc(-c2ccc(C(=O)Nc3ccccn3)cc2)c2c(N)nccn12` [ACALABRUTINIB], the “Cell Viability” value in the assay with Colon cancer organoid [1] (Replication number 1) was 90.1303% and 116.516%; with Colon cancer organoid [1] (Replication number 2) it was 93.0581% and 134.149%; in the assay on Colon cancer organoid [2] (Replication number 1), 72.6716% and 83.0294%; in the assay with Colon cancer organoid [2] (Replication number 2), 131.144% and 94.2129%; with Colon cancer organoid [3] (Replication number 1), 108.483% and 104.159%; in the assay with Colon cancer organoid [3] (Replication number 2) it was 68.1537% and 91.7224%.

Take `CC[C@H](CC(=O)O)n1c(=O)c2ncccc2n(Cc2cn(C)c3cc(C)cc(C)c23)c1=O` [BI-1942]: the “Cell Viability” value in the assay with Colon cancer organoid [1] (Replication number 1) is 98.903% and 90.5784%; in the assay on Colon cancer organoid [1] (Replication number 2), 95.5994% and 107.07%; in the assay with Colon cancer organoid [2] (Replication number 1), 76.1388% and 88.7208%; in the assay with Colon cancer organoid [2] (Replication number 2), 109.791% and 100.317%; in the assay with Colon cancer organoid [3] (Replication number 1), 122.43% and 127.53%; with Colon cancer organoid [3] (Replication number 2) it was 114.507% and 111.004%.

In the case of `FC(F)(F)c1ccc2c(c1)nc(-c1cccnc1)n2C1CC1` [MSD-CYP11B2-Negative-control], the “Cell Viability” value in the assay with Colon cancer organoid [1] (Replication number 1) was 89.0845% and 95.4893%; in the assay on Colon cancer organoid [1] (Replication number 2), 78.0159% and 105.031%; in the assay with Colon cancer organoid [2] (Replication number 1) it was 82.6005% and 103.914%; in the assay with Colon cancer organoid [2] (Replication number 2), 111.8% and 104.679%; in the assay on Colon cancer organoid [3] (Replication number 1) it was 82.4588% and 96.4372%; in the assay with Colon cancer organoid [3] (Replication number 2), 50.7409% and 62.2297%.

In the case of `O[C@H]1CC[C@H](Nc2ncc3nc(Nc4c(F)cc(F)cc4F)n([C@H]4CCOC4)c3n2)CC1` [TANZISERTIB], the “Cell Viability” value was 99.1681% and 86.9686% in the assay with Colon cancer organoid [1] (Replication number 1); 119.868% and 95.5739% with Colon cancer organoid [1] (Replication number 2); 161.464% and 97.9897% in the assay on Colon cancer organoid [2] (Replication number 1); 183.086% and 108.79% in the assay with Colon cancer organoid [2] (Replication number 2); 85.5595% and 88.3572% in the assay on Colon cancer organoid [3] (Replication number 1); 111.493% and 110.437% in the assay on Colon cancer organoid [3] (Replication number 2).

On to `C[C@@H]1CN(c2cc(-c3nn(C)c4ccc(OC5(C)CC5)cc34)ncn2)C[C@H](C)O1` [MLi-2-NC], for which the “Cell Viability” value is 92.869% and 94.89% in the assay with Colon cancer organoid [1] (Replication number 1); 95.8024% and 129.082% with Colon cancer organoid [1] (Replication number 2); 104.615% and 76.2145% in the assay with Colon cancer organoid [2] (Replication number 1); 63.1554% and 89.3757% in the assay with Colon cancer organoid [2] (Replication number 2); 109.32% and 103.981% in the assay on Colon cancer organoid [3] (Replication number 1); 134.588% and 115.132% in the assay with Colon cancer organoid [3] (Replication number 2).

For the compound `CNCCN1CCC(OCc2ccccc2)CC1`, the “Cell Viability” value with Colon cancer organoid [1] (Replication number 1) is 118.771% and 101.11%; in the assay with Colon cancer organoid [1] (Replication number 2), 99.3774% and 100.418%; in the assay with Colon cancer organoid [2] (Replication number 1), 67.0161% and 91.8083%; in the assay on Colon cancer organoid [2] (Replication number 2), 91.8334% and 102.344%; with Colon cancer organoid [3] (Replication number 1), 119.99% and 102.443%; in the assay on Colon cancer organoid [3] (Replication number 2), 115.41% and 100.611%.

In the case of `CCC(=O)N[C@H]1CC[C@@H](C(=O)N(C)c2ccc(-c3nc4ccccc4o3)cc2)C1` [BI 99179], the “Cell Viability” value in the assay with Colon cancer organoid [1] (Replication number 1) is 140.434% and 105.951%; in the assay with Colon cancer organoid [1] (Replication number 2), 114.409% and 97.9592%; with Colon cancer organoid [2] (Replication number 1), 70.0522% and 46.8277%; in the assay on Colon cancer organoid [2] (Replication number 2), 52.7511% and 35.3414%; with Colon cancer organoid [3] (Replication number 1), 21.7258% and 60.1874%; in the assay on Colon cancer organoid [3] (Replication number 2), 30.1767% and 66.0942%.

Consider `CC(=O)Nc1c(F)cc(C(=O)N[C@H]2CC[C@H](O)CC2)cc1O[C@@H](C)c1ccccc1` [GSK046], for which the “Cell Viability” value is 120.66% and 109.131% in the assay with Colon cancer organoid [1] (Replication number 1); 123.541% and 110.129% in the assay on Colon cancer organoid [1] (Replication number 2); 43.6665% and 86.4699% in the assay with Colon cancer organoid [2] (Replication number 1); 69.7579% and 96.7486% in the assay on Colon cancer organoid [2] (Replication number 2); 114.325% and 118.785% with Colon cancer organoid [3] (Replication number 1); 117.277% and 127.102% in the assay with Colon cancer organoid [3] (Replication number 2).

As for `C[C@@H]1CCNC(=O)c2cc3ccc(C(=O)Nc4nc5ccccc5n4CCCN(C)C)cc3n21`, the “Cell Viability” value in the assay on Colon cancer organoid [1] (Replication number 1) is 69.4409% and 79.1638%; in the assay with Colon cancer organoid [1] (Replication number 2) it was 71.3371% and 86.362%; in the assay with Colon cancer organoid [2] (Replication number 1), 82.052% and 59.5917%; in the assay on Colon cancer organoid [2] (Replication number 2), 80.614% and 53.9902%; in the assay on Colon cancer organoid [3] (Replication number 1) it was 118.285% and 99.4853%; in the assay with Colon cancer organoid [3] (Replication number 2), 110.228% and 88.2262%.

Turning to `O=C(O)[C@@H]1[C@@H](Cn2nnc3ccccc3c2=O)CC[C@H]1C(=O)c1ccc(OCCC2CCOCC2)cc1` [BAY-694], the “Cell Viability” value was 110.342% and 94.3079% in the assay on Colon cancer organoid [1] (Replication number 1); 96.7199% and 85.7143% with Colon cancer organoid [1] (Replication number 2); 120.527% and 70.2416% with Colon cancer organoid [2] (Replication number 1); 178.043% and 104.564% in the assay with Colon cancer organoid [2] (Replication number 2); 110.156% and 94.3794% in the assay on Colon cancer organoid [3] (Replication number 1); 134.213% and 84.5721% in the assay on Colon cancer organoid [3] (Replication number 2).

`C[C@H](NC(=O)c1cnc2n1[C@](C)(Cc1ccc(C#N)cc1)C(=O)N2c1cc(Cl)c(F)c(Cl)c1)C(=O)NC1(c2ccccn2)CC1` [BI 1950]: the “Cell Viability” value was 97.6765% and 100.712% in the assay with Colon cancer organoid [1] (Replication number 1); 88.7319% and 89.7959% in the assay on Colon cancer organoid [1] (Replication number 2); 132.005% and 114.441% in the assay on Colon cancer organoid [2] (Replication number 1); 125.066% and 107.777% in the assay with Colon cancer organoid [2] (Replication number 2); 114.343% and 119.672% in the assay on Colon cancer organoid [3] (Replication number 1); 141.649% and 119.396% in the assay on Colon cancer organoid [3] (Replication number 2).

With `Cc1cc2c(-c3ccco3)cnc(N[C@H]3CCN(C)C[C@@H]3C(=O)NC3CCCCC3)c2[nH]c1=O` [GSK791], the “Cell Viability” value with Colon cancer organoid [1] (Replication number 1) is 103.348% and 100.946%; in the assay on Colon cancer organoid [1] (Replication number 2), 100.095% and 111.149%; in the assay on Colon cancer organoid [2] (Replication number 1), 46.4952% and 92.4722%; in the assay with Colon cancer organoid [2] (Replication number 2), 100.727% and 114.988%; in the assay with Colon cancer organoid [3] (Replication number 1) it was 106.466% and 102.024%; in the assay on Colon cancer organoid [3] (Replication number 2) it was 100.388% and 101.634%.

Turning to `Cc1c(Nc2ccc(S(=O)(=O)N3CCN(C)CC3)cc2F)nc2ccc(Nc3cnn(C4CC4)c3)cn2c1=O`, the “Cell Viability” value is 116.907% and 92.8805% in the assay on Colon cancer organoid [1] (Replication number 1); 82.2867% and 96.1217% in the assay on Colon cancer organoid [1] (Replication number 2); 89.3145% and 89.49% in the assay on Colon cancer organoid [2] (Replication number 1); 245.21% and 122.015% in the assay with Colon cancer organoid [2] (Replication number 2); 183.611% and 128.295% in the assay with Colon cancer organoid [3] (Replication number 1); 165.181% and 157.488% in the assay with Colon cancer organoid [3] (Replication number 2).

Regarding `CC[C@@H]1CN(C(=O)NCC(F)(F)F)C[C@@H]1c1cnc2cnc3[nH]ccc3n12` [UPADACITINIB], the “Cell Viability” value with Colon cancer organoid [1] (Replication number 1) is 100.634% and 104.808%; in the assay on Colon cancer organoid [1] (Replication number 2), 99.9708% and 92.6952%; with Colon cancer organoid [2] (Replication number 1) it was 147.971% and 117.189%; in the assay on Colon cancer organoid [2] (Replication number 2), 96.4317% and 92.8632%; in the assay on Colon cancer organoid [3] (Replication number 1) it was 103.03% and 85.909%; with Colon cancer organoid [3] (Replication number 2), 77.8559% and 94.8072%.

For the compound `CC(C)(C#Cc1ccc(NC(=O)COc2ccccc2C(=O)c2ccccc2)c(Cl)c1)C(=O)O` [BI 2439], the “Cell Viability” value in the assay with Colon cancer organoid [1] (Replication number 1) is 94.7659% and 113.344%; with Colon cancer organoid [1] (Replication number 2), 112.811% and 119.578%; in the assay with Colon cancer organoid [2] (Replication number 1), 115.901% and 103.937%; with Colon cancer organoid [2] (Replication number 2) it was 114.023% and 92.0585%; in the assay with Colon cancer organoid [3] (Replication number 1), 94.1417% and 101.057%; in the assay with Colon cancer organoid [3] (Replication number 2), 69.7928% and 91.0899%.
